Results taken from PubChem BioAssay (NCI).
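A five-concentration, 48-hour dose response in 96-well plates underlies each endpoint, interpolated linearly between surrounding concentrations. GI50 marks 50% less growth. TGI: concentration producing complete growth inhibition.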 Where a SMILES comes first, the peptide text is derived from it.

Key:
Test in all cases: NCI tumour cell line growth inhibition, 48 h
ACHN renal = test system: ACHN renal
HT29 colon = test system: HT29 colon
IGROV1 ovarian = test system: IGROV1 ovarian
KM12 colon = test system: KM12 colon
M14 melanoma = test system: M14 melanoma
MALME-3M melanoma = test system: MALME-3M melanoma
SNB-75 CNS = test system: SNB-75 CNS
UACC-257 melanoma = test system: UACC-257 melanoma
SK-OV-3 ovarian = test system: SK-OV-3 ovarian
786-0 renal = test system: 786-0 renal

| Structure (SMILES) | GI50 (ACHN renal) | TGI (ACHN renal) | GI50 (HT29 colon) | TGI (HT29 colon) | GI50 (IGROV1 ovarian) | TGI (IGROV1 ovarian) | GI50 (KM12 colon) | TGI (KM12 colon) | GI50 (M14 melanoma) | TGI (M14 melanoma) | GI50 (MALME-3M melanoma) | TGI (MALME-3M melanoma) | GI50 (SNB-75 CNS) | TGI (SNB-75 CNS) | GI50 (UACC-257 melanoma) | TGI (UACC-257 melanoma) | TGI (SK-OV-3 ovarian) | TGI (786-0 renal) | GI50 (SK-OV-3 ovarian) |
| --- | --- | --- | --- | --- | --- | --- | --- | --- | --- | --- | --- | --- | --- | --- | --- | --- | --- | --- | --- |
| O=C(N/N=C\c1ccc(N(CCCl)CCCl)cc1)c1cccnc1 | 31.6 µM | > 100 µM | > 100 µM | > 100 µM | > 100 µM | > 100 µM | 61.9 µM | > 100 µM | 60.2 µM | > 100 µM | 55 µM | > 100 µM | 33.7 µM | > 100 µM | 60.6 µM | > 100 µM | – | – | – |
| C/C=C(\C)C(=O)OC1C2C(C)=CC(=O)C(O)C2(C)C2C3(O)OCC24C1OC(=O)C(OC(C)=O)C4C(C)C3O (centres undefined) | – | – | – | 0.382 µM | – | 0.16 µM | – | 0.0375 µM | – | – | – | – | – | 0.055 µM | – | 0.0496 µM | 1.12 µM | – | – |
| CCOC(=O)c1ccc(Nc2nc3ccccc3n3cccc23)cc1 | – | > 100 µM | – | > 100 µM | – | > 100 µM | – | > 100 µM | – | > 100 µM | – | > 100 µM | – | 48.3 µM | – | > 100 µM | 92.4 µM | > 100 µM | – |
| CC(C)(C)c1ccc(NS(=O)(=O)c2ccc(N)cc2)cc1 | – | 83.6 µM | – | 35.3 µM | – | 45.2 µM | – | > 100 µM | – | 44.2 µM | – | 39.6 µM | – | 92.7 µM | – | > 100 µM | 12.5 µM | 52.1 µM | – |
| COc1cc2c(c(OC)c1OC)-c1ccc(OC)c(=O)cc1C(NC(=O)CCCCCNc1ccc(N=[N+]=[N-])cc1[N+](=O)[O-])CC2 (centres undefined) | – | 24.4 µM | – | < 0.01 µM | – | > 31.6 µM | – | – | – | 5.44 µM | – | 26.1 µM | – | – | – | – | 7.17 µM | – | – |
| CC(C)(C)OC(=O)NCC(c1c[nH]c2cc(Br)ccc12)c1c[nH]c2cc(Br)ccc12 | – | 30.3 µM | – | 33.5 µM | – | 29.4 µM | – | 37.3 µM | – | 37.3 µM | – | 31.7 µM | – | 49.6 µM | – | 44.6 µM | 29.5 µM | 33.5 µM | – |
| N#C[S-].[Ce+3].c1ccc(-c2ccccn2)nc1.c1ccc(-c2ccccn2)nc1.c1ccc(-c2ccccn2)nc1 | – | – | 10.6 µM | > 100 µM | 24.5 µM | 69 µM | 38 µM | > 100 µM | 6.24 µM | 24.7 µM | 23 µM | 60.7 µM | 15.2 µM | > 100 µM | 21.4 µM | 64.1 µM | 60.7 µM | – | 27 µM |
| COC(Cc1cc(C(O)(c2ccc(C(C)(C)C)cc2)c2cc(CC(OC)(c3cc(C(OC)(c4ccc(C(C)(C)C)cc4)c4ccc(C(C)(C)C)cc4)c(C)cc3C)c3cc(C(OC)(c4ccc(C(C)(C)C)cc4)c4ccc(C(C)(C)C)cc4)c(C)cc3C)c(C)cc2C)c(C)cc1C)(c1cc(C(OC)(c2ccc(C(C)(C)C)cc2)c2ccc(C(C)(C)C)cc2)c(C)cc1C)c1cc(C(OC)(c2ccc(C(C)(C)C)cc2)c2ccc(C(C)(C)C)cc2)c(C)cc1C | – | – | – | > 75 µM | – | > 75 µM | – | – | – | > 75 µM | – | > 75 µM | – | > 75 µM | – | > 75 µM | > 75 µM | – | – |
| O=C1NCN(c2ccccc2)C12CCN(CCCN1CCN(CCOC(c3ccccc3)c3ccccc3)CC1)CC2 | – | 5.88 µM | – | 4.22 µM | – | 7.4 µM | – | 5.97 µM | – | 3.86 µM | – | 5.54 µM | – | 5.46 µM | – | 2.7 µM | 7.12 µM | 2.31 µM | – |
| CC(=O)NC(CS)C(=O)NC(CO)C(=O)NC(CO)C(=O)NC(Cc1c[nH]c2ccccc12)C(=O)N1CCCC1C(=O)NC(CO)C(=O)NC(Cc1c[nH]c2ccccc12)C(=O)NC(Cc1c[nH]cn1)C(=O)NC(CO)C(=O)NC(Cc1c[nH]c2ccccc12)C(=O)NCC(=O)NCC(=O)NC(C)C(=O)NC(CCC(N)=O)C(=O)NC(CCCCN)C(=O)NC(C)C(=O)NC(CCCNC(=N)N)C(=O)NC(CCCCN)C(N)=O (centres undefined) (Ac-CSSWPSWHSWGGAQKARK-NH2; configuration not given here) | – | > 50 µM | – | > 50 µM | – | > 50 µM | – | 32.1 µM | – | > 50 µM | – | 20.3 µM | – | 42.1 µM | – | 19.6 µM | > 50 µM | 19.5 µM | – |
| COc1nc2ccc(Cl)c(C(O)c3ccccc3)c2nc1OC (centres undefined) | – | > 100 µM | – | > 100 µM | – | > 100 µM | – | > 100 µM | – | 38.8 µM | – | > 100 µM | – | > 100 µM | – | 59.2 µM | – | – | – |
